Values of other authors in patent publication US7718595B2, “Light duty liquid cleaning compositions and methods of manufacture and use thereof comprising organic acids” (priority 2008, dated 2010).

Legend:
[1] = list category
[2] = not given; remark: listed apart in the source

| Compound | EPA Inert List [1] | pKa | solubility in water [2] |
| --- | --- | --- | --- |
| CCCCCCCCCCCC(=O)NCCC[N+](C)(C)CC(=O)[O-] [Laurylamidopropyl Betaine] | 3 | – | – |
| sodium xylene sulfonate [SXS] | 3 | – | – |
| O=S(=O)([O-])[O-].[Mg+2] [Mg2SO4] | 4A | – | – |
| O=C([O-])CN(CCN(CC(=O)[O-])CC(=O)[O-])CC(=O)[O-].[Na+].[Na+].[Na+].[Na+] [Na4EDTA] | 4B | – | – |
| CC(O)C(=O)O (centres unmarked) [Lactic acid] | 4B | about 3.8 | – |
| O=P(O)(O)OP(=O)(O)OP(=O)(O)O [Sodium tripolyphosphate] | – | – | about 14 wt-% |
| CCO [Ethanol] | 4B | – | – |
